Legend:
[1] = system: cGMP-dependent PK; conditions: Table 2, data from Hoessel et al. (1999); cited from earlier work
[2] = biological target: T1, protein kinase C ε (Homo sapiens, UniProt Q02156); set-up: made in house; conditions: Table 2, data from Hoessel et al. (1999); cited from earlier work
T1 sequence (Q02156 1-737): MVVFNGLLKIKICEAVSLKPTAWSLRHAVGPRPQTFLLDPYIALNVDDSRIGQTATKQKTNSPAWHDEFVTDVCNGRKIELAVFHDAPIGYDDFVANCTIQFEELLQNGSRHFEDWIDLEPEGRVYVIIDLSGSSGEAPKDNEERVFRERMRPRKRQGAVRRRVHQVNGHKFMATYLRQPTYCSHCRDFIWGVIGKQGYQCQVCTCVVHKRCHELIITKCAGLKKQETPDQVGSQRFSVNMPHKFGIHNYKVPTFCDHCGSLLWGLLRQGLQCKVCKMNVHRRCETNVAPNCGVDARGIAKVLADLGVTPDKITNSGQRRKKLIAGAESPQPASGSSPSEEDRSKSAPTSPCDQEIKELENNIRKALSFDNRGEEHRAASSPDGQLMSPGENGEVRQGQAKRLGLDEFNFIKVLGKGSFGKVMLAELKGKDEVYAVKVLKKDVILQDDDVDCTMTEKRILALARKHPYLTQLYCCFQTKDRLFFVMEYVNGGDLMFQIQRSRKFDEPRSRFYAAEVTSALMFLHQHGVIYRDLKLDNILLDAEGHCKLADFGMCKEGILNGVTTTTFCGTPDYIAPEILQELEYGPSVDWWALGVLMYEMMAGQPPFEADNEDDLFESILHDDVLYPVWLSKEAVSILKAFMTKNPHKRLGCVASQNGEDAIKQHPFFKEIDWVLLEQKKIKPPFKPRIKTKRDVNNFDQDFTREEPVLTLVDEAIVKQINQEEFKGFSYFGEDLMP

[3] = system: AhR; test: AhR nuclear translocation in Hepa-1 and ARNT mutant cells (immunofluorescence); type: cell-based, mouse; conditions: 25 μM, 90 min, Hepa-1 wild-type and ARNT mutant cells
[4] = system: 5L (AhR +/+) hepatoma cells; test: Cell viability MTT assay, 5L cells; type: cell-based, mouse; conditions: range of concentrations, 24 and 48 hr
[5] = system: p27^KIP1 in 5L (AhR +/+) cells; test: p27KIP1 expression by Western blotting, 5L cells; type: cell-based, mouse
[6] = biological target: protein kinase C η (Homo sapiens, UniProt P24723); set-up: made in house; conditions: Table 2, data from Hoessel et al. (1999); cited from earlier work
[7] = system: MAPKK; conditions: Table 2, data from Hoessel et al. (1999); cited from earlier work
[8] = system: cAMP-dependent PK; conditions: Table 2, data from Hoessel et al. (1999); cited from earlier work
[9] = system: GSK-3α (Tyr276) / GSK-3β (Tyr216); test: Tyrosine phosphorylation of GSK-3 in SH-SY5Y cells (Western blot); type: cell-based, human; conditions: 1 μM, 12 hr
Description: GSK-3α and GSK-3β activity is enhanced by the phosphorylation of a specific tyrosine residue (Tyr276 and Tyr216, respectively) (Hughes et al. (1993) EMBO J. 12: 803-808; Dajani et al. (2003) EMBO J. 22: 494-501). The tyrosine kinase responsible for this phosphorylation in mammals is unknown, but there is some evidence that it indirectly depends on GSK-3 activity (Bhat et al. (2000) Proc. Natl. Acad. Sci. U.S.A. 97: 11074-11079; Shaw et al. (1997) FEBS Lett. 416: 307-311). […] SH-SY5Y cells were exposed to IO, MeIO, BIO and MeBIO for 12 hr and the phosphorylation of Tyr276 (GSK-3α) and Tyr216 (GSK-3β) was estimated by Western blotting with phospho-specific antibodies. […] This was accompanied by an increased level in total GSK-3β, total β-catenin, and dephospho-&catenin.

protein kinase C η, sequence (P24723 whole entry): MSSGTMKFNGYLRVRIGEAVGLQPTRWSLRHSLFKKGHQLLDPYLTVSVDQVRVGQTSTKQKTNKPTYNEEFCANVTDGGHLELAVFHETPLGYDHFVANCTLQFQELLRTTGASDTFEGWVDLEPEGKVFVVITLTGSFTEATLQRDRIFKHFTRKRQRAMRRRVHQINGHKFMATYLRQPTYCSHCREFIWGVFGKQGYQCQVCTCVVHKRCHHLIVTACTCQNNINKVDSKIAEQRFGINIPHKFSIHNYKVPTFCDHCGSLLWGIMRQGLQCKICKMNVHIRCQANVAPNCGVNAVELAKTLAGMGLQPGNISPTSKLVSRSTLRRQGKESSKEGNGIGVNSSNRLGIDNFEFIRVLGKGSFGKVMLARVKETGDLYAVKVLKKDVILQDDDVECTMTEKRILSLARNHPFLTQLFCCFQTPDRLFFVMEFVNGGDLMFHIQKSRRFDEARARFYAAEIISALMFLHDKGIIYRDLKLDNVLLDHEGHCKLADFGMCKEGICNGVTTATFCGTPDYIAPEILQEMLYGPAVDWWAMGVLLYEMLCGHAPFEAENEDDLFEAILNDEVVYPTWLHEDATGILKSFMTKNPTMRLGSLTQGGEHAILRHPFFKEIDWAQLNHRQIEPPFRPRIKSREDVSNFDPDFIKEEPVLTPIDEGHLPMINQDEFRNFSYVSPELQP

## O=C1Nc2ccccc2/C1=C1/Nc2ccccc2/C1=N\O [7h, indirubin-3′-oxime]
[1]
  IC50: 9 µM
[2]
  IC50: 20 µM
[3]
  nuclear translocation of AhR: AhR rapidly localized to the nucleus
[4]
  survival of 5L cells (MTT): equally sensitive to IO and BIO
[5]
  p27^KIP1 expression in 5L cells: modest, but detectable increase
[6]
  IC50: 52 µM
[7]
  IC50: > 100 µM
[8]
  IC50: 6.3 µM
[9]
  level of tyrosine phosphorylation of both GSK-3 isoforms: dramatically reduced

Source: patent US20070276025A1, “Indirubin-Type Compounds, Compositions, and Methods for Their Use” (priority 2003, published 2007)
